By IC50 is commonly meant the midpoint of a concentration-inhibition curve. The term solubility denotes how much of the substance goes into solution per volume. Low values mean a poorly soluble substance, high ones a readily soluble substance.

Converted amounts (≈) assume the structure as drawn.

The record followed here is patent US20260217698A1 (BEYANG THERAPEUTICS CO., LTD., priority 2022, published 2026).

The target of data set [1] is T1, EGFR (Homo sapiens, UniProt P00533).
T1 construct: purchased Carna 08-115
Kind of data set: Kinase inhibition, Mobility Shift Assay/IMAP, EGFR. Type of data set: biochemical. The method, boiled down: (§1)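 Substrate conversion (phosphorylated vs non-phosphorylated) read by mobility shift on Caliper EZ Reader II and converted to % inhibition relative to no-enzyme and DMSO controls. IC50 fitted from % inhibition versus log compound concentration.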

A short description of data set [2]: Solubility test in buffer, LC-MS. Type of data set: physicochemical. To be noted: aqueous buffer, thermodynamic from solid, room temperature, shaking 8 h, pH not given (method: pH 2.0, 6.5, 7.4). Here is the method:
Accurately weigh 3 portions of about 2 mg of the compound, and add appropriate volumes of buffers with the pHs of 2.0, 6.5, and 7.4 respectively to obtain a solution with a concentration of 2 mg/mL. After sonication for 10 min, fix them on a shaker and shaking for 8 h at room temperature. After shaking, sonicate for 10 min and centrifuge for 15 min at 13,000 rpm. Pipette 0.1 mL of supernatant into a new tube, shake and rinse it with 5 mL, and discard the liquid. Transfer 0.5 mL of the supernatant again to a new tube, centrifuge it for 15 min at 13,000 rpm, then collect the supernatant (if necessary, dilute with water) and analyze it by LC-MS. The sample concentrations at 3~5 points are subjected to fitting and reticle for quantification.

The target of data set [3] is VEGFR2 (Homo sapiens, UniProt P35968). The data set can be described thus: Kinase inhibition, Mobility Shift Assay/IMAP, VEGFR2. Type of data set: biochemical. Details: purchased Carna 08-191. In a few lines:
as §1

Data set [4] addresses T2, TIE2 (Homo sapiens, UniProt Q02763).
T2 construct: purchased BPS 40270
The data set can be described thus: Kinase inhibition, Mobility Shift Assay/IMAP, TIE2. Type of data set: biochemical. The method, boiled down: as §1

Data set [5] relates to melanin. The data set can be described thus: Binding capacity of compounds to melanin. To be noted: cuttlefish (Sepia officinalis), melanin suspension (1 mg/mL); 1 mg/mL melanin in PBS pH 7.4, 2 μM compound, 2 h at 37° C.; read-out: Fu % (percentage of free drug). Type of data set: in vitro ADME, cuttlefish (Sepia officinalis). In a few lines: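 Compound (2 μM final) incubated with washed Sepia melanin (1 mg/mL, PBS pH 7.4) 2 h at 37° C with shaking; PBS with 0.1% BSA served as blank. Supernatants quantified by LC-MS/MS; bound fraction Fb derived from melanin versus blank concentration.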

Data set [6] deals with T3, VEGFR1 (Homo sapiens, UniProt P17948).
T3 construct: purchased Invitrogen PR6731B
Kind of data set: Kinase inhibition, Mobility Shift Assay/IMAP, VEGFR1. Type of data set: biochemical. The source says: (§2) This assay directly monitored the ability of compounds to inhibit kinase phosphorylation by measuring non-phosphorylated and phosphorylated substrates in kinase reactions by using Mobility Shift Assays/IMAP™ analysis.
(§3) Read the conversion ratio data on CaliperEZ Reader II. Convert conversion rates into inhibition ratio data.
(§4) “Min” indicates the readout of the control well without the addition of enzymes; and “Max” indicates the readout of the control well with the addition of DMSO Fit IC50 values with XL Fit excel add-in version […].
(§5) X indicates the log value of compound concentration, and Y indicates the inhibition ratio (% inhibition).

The target of data set [7] is T4, VEGFR3 (Homo sapiens, UniProt P35916).
T4 construct: purchased Invitrogen PV4129
The data set can be described thus: Kinase inhibition, Mobility Shift Assay/IMAP, VEGFR3. Type of data set: biochemical.
Text: as §2, §3, §4, §5

T4 sequence (P35916 25-1363): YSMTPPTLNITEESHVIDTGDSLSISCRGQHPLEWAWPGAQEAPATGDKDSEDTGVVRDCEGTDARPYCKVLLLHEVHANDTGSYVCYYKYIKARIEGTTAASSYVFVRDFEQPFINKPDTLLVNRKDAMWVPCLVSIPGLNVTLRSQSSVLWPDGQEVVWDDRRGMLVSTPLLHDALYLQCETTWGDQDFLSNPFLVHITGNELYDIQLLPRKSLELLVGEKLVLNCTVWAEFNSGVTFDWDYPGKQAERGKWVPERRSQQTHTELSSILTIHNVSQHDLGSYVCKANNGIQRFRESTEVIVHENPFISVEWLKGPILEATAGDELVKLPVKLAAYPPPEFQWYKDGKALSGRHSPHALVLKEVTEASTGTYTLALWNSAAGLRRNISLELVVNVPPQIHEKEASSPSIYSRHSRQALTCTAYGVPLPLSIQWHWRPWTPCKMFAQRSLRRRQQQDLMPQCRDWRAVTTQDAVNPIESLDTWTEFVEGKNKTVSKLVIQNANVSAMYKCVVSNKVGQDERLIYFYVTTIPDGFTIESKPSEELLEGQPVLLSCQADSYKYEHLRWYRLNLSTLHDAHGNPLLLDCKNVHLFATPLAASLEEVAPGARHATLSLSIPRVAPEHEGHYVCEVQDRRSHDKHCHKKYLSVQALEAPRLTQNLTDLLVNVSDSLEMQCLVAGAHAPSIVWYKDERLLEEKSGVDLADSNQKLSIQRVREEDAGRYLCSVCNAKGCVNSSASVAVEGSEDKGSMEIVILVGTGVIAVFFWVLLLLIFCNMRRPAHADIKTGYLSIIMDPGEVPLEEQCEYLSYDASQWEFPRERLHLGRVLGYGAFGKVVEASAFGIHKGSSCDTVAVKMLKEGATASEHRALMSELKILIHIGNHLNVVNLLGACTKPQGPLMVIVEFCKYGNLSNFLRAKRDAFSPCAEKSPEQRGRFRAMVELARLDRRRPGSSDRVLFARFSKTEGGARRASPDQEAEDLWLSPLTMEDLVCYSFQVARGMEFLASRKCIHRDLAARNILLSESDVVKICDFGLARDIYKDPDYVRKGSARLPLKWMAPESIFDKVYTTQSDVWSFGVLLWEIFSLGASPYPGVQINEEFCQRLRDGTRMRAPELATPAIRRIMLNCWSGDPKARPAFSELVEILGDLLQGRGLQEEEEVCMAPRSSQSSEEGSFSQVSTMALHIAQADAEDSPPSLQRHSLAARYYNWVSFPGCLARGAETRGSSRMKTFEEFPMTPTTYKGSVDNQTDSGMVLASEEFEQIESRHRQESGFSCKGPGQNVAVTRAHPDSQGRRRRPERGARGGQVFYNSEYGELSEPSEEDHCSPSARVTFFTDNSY
Chain of VEGFR2 (P35968 790-1356 limits assumed): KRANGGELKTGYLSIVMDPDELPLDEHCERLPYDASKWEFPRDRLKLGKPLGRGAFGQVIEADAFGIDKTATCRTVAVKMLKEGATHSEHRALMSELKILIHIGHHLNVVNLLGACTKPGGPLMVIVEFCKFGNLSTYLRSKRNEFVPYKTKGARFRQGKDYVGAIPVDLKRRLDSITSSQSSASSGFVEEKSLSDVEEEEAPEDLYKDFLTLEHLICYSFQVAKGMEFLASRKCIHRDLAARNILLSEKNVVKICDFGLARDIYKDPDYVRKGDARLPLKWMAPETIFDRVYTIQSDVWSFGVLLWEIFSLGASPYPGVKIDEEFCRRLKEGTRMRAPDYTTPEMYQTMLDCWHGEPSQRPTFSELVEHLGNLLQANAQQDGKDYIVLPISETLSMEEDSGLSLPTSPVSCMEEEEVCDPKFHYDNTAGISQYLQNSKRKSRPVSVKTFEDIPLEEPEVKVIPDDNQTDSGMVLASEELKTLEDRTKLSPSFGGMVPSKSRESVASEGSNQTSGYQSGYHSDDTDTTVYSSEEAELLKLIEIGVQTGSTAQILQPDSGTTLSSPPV
T2 sequence (Q02763 23-1124): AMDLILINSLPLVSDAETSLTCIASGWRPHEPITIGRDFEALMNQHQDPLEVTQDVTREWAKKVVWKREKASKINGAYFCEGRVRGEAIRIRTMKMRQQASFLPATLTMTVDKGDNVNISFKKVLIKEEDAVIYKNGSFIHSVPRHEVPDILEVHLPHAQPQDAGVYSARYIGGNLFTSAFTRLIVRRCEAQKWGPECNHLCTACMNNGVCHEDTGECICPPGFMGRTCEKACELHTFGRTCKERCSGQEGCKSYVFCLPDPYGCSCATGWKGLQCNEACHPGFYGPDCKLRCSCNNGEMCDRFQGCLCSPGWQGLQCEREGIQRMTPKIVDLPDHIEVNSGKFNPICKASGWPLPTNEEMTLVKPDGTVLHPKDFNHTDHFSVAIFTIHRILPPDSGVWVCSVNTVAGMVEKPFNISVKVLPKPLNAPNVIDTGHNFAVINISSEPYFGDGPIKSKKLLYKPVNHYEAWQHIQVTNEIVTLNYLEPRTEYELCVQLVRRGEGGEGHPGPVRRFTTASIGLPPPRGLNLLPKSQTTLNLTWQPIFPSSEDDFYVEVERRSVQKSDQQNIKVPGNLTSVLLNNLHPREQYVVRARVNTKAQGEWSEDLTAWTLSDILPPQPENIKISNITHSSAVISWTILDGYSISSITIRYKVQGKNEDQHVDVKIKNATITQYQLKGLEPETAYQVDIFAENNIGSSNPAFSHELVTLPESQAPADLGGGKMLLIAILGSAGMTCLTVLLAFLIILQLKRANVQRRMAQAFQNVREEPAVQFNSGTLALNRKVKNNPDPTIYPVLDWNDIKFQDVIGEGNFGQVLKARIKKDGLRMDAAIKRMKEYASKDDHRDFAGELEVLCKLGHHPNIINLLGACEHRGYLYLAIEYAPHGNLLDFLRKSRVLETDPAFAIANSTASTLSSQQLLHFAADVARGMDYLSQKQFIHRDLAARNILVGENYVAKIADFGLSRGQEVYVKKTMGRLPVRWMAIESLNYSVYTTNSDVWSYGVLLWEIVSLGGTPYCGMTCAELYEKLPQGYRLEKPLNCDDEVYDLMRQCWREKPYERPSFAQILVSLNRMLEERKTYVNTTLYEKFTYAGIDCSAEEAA
T1 sequence (P00533 669-1210 limits assumed): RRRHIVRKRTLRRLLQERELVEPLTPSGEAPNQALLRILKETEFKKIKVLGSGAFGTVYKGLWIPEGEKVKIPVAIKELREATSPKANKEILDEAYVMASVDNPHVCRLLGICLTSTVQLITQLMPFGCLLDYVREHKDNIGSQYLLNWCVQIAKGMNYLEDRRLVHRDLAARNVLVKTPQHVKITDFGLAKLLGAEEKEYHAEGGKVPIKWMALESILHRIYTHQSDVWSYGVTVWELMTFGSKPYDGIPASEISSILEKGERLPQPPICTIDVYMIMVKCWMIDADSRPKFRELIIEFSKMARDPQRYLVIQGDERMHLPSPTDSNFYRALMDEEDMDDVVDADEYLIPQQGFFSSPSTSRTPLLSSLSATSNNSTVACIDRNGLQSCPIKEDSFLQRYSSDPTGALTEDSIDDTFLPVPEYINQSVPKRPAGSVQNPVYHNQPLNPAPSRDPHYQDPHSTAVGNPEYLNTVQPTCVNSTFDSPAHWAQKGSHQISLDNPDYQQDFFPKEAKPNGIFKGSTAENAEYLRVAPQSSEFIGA
T3 sequence (P17948 27-1338): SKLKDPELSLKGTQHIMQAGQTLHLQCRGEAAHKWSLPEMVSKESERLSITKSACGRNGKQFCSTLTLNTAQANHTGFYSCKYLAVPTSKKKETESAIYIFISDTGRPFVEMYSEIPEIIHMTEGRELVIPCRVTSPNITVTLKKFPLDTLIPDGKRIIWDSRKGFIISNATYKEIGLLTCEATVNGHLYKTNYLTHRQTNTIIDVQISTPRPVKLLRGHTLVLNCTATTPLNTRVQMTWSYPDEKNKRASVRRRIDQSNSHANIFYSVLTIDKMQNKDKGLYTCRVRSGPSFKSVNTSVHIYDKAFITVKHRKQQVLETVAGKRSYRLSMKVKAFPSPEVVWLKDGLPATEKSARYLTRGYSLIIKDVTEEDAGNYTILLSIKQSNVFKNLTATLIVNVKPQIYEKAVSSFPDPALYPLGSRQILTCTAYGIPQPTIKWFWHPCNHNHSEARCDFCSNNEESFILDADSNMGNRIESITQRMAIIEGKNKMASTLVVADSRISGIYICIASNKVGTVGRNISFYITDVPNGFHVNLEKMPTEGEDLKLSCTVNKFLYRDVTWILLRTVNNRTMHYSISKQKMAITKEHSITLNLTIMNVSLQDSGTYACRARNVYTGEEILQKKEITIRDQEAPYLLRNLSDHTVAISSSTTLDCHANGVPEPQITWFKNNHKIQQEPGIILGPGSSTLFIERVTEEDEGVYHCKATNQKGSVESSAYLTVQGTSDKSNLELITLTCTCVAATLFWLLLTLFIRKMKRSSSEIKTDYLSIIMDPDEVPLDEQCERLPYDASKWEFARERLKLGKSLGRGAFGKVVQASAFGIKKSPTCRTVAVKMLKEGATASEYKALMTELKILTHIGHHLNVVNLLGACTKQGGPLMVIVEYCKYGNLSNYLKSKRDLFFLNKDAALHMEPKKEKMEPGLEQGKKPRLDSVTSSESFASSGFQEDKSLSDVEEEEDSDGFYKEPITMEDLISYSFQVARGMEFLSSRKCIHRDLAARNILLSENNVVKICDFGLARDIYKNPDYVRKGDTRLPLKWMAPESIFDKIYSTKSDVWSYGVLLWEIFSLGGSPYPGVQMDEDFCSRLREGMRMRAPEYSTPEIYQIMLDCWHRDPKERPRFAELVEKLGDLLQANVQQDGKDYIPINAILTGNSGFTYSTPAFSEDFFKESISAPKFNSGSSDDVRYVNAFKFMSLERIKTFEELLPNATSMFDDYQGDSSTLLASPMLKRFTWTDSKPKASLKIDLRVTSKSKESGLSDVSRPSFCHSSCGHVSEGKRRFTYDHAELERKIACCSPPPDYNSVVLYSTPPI

As to `COc1cc(COc2nsc(NC(=O)NCCCCN3CCCC3)c2C(N)=O)cc(OC)c1` [Compound T006, 3-((3,5-dimethoxybenzyl)oxy)-5-(3-(4-(pyrrolidin-1-yl)butyl)ureido)isothiazole-4-carboxamide], the IC50 in data set [1] worked out at 35000 nM; in data set [3], 47.4 nM. The same molecule had a solubility at 8 h in data set [2] of 1170 µg/mL (≈ 2450 µM).
Regarding `NC(=O)c1c(OCc2ccc3c(c2)OCO3)nsc1NC(=O)NCCCCN1CCCC1` [Compound T007, 3-(benzo[d][1,3]dioxol-5-ylmethoxy)-5-(3-(4-(pyrrolidin-1-yl)butyl)ureido)isothiazole-4-carboxamide], the IC50 in data set [4] stood at 475 nM; in data set [3] it was 43 nM. The solubility at 8 h in data set [2] is 608 µg/mL (≈ 1320 µM).
`Cn1nc(COc2nsc(NC(=O)NCCCCN3CCCC3)c2C(N)=O)cc1Br` [Compound T022, 3-((5-bromo-1-methyl-1H-pyrazol-3-yl)methoxy)-5-(3-(4-(pyrrolidin-1-yl)butyl)ureido)isothiazole-4-carboxamide] showed a solubility at 8 h in data set [2] of 1290 µg/mL (≈ 2570 µM).
In the case of `NC(=O)c1c(OCc2ccc(OC(F)F)c(F)c2)nsc1NC(=O)NCCCCN1CCCC1` [Compound T027, 3-((4-(difluoromethoxy)-3-fluorobenzyl)oxy)-5-(3-(4-(pyrrolidin-1-yl)butyl)ureido)isothiazole-4-carboxamide], in data set [2], the solubility at 8 h is 478 µg/mL (≈ 953 µM). Moreover, the fraction unbound at 2 h, 2 μM in data set [5] came out at 0.0421.
`COc1cccc(COc2nsc(NC(=O)NCCCCN3CCCC3)c2C(N)=O)c1F` [Compound T030, 3-((2-fluoro-3-methoxybenzyl)oxy)-5-(3-(4-(pyrrolidin-1-yl)butyl)ureido)isothiazole-4-carboxamide]: the 50% inhibitory concentration (IC50) in data set [1] turned out to be 21800 nM; in data set [3], 34.8 nM. This molecule showed a solubility at 8 h in data set [2] of 1520 µg/mL (≈ 3260 µM). The fraction unbound at 2 h, 2 μM in data set [5] came to 0.0232.
As to `CNC(=O)c1cccc(COc2nsc(NC(=O)NCCCCN3CCCC3)c2C(N)=O)c1` [Compound T049, 3-((3-(methylcarbamoyl)benzyl)oxy)-5-(3-(4-(pyrrolidin-1-yl)butyl)ureido)isothiazole-4-carboxamide], the half-maximal inhibitory concentration (IC50) in data set [6] was determined as 21.6 nM; in data set [4], 7560 nM; in data set [3] it was 19.8 nM. This molecule also had a solubility at 8 h in data set [2] of 2310 µg/mL (≈ 4880 µM).
Turning to `CNC(=O)c1cccc(COc2nsc(NC(=O)NCCC3CCN(C)CC3)c2C(N)=O)c1` [Compound T055, 3-((3-(methylcarbamoyl)benzyl)oxy)-5-(3-(2-(1-methylpiperidin-4-yl)ethyl)ureido)isothiazole-4-carboxamide], the IC50 in data set [6] was found to be 7.7 nM; in data set [7], 39.3 nM; in data set [4] it was 3360 nM; in data set [1], 49700 nM; in data set [3], 15.7 nM. In data set [2], the solubility at 8 h turned out to be 144 µg/mL (≈ 303 µM).
Take `NC(=O)c1c(OCc2cccc(C(=O)NC3CC3)c2)nsc1NC(=O)NCCCCN1CCCC1` [Compound T056, 3-((3-(cyclopropylcarbamoyl)benzyl)oxy)-5-(3-(4-(pyrrolidin-1-yl)butyl)ureido)isothiazole-4-carboxamide]: the IC50 in data set [6] turned out to be 3.33 nM; in data set [7], 13.2 nM; in data set [1] it was 50600 nM; in data set [3] it was 4.69 nM. Also, the solubility at 8 h in data set [2] worked out at 2000 µg/mL (≈ 4000 µM). Besides, the fraction unbound at 2 h, 2 μM in data set [5] is 0.0183.
With `CN1CCN(CCNC(=O)Nc2snc(OCc3cccc(C(=O)NC4CC4)c3)c2C(N)=O)CC1` [Compound T065, 3-((3-(cyclopropylcarbamoyl)benzyl)oxy)-5-(3-(2-(4-methylpiperazin-1-yl)ethyl)ureido)isothiazole-4-carboxamide], the IC50 in data set [6] was 6.55 nM; in data set [7], 24.1 nM; in data set [4] it was 5430 nM; in data set [1] it was at least 60000 nM; in data set [3] it was 9.95 nM. For the same molecule, the concentration in solution in data set [2] (solubility at 8 h) came to 782 µg/mL (≈ 1560 µM).
On to `NC(=O)c1c(OCc2cccc(C(=O)NC3CC3)c2)nsc1NC(=O)NCCCN1CCCC1` [Compound T067, 3-((3-(cyclopropylcarbamoyl)benzyl)oxy)-5-(3-(3-(pyrrolidin-1-yl)propyl)ureido)isothiazole-4-carboxamide], for which the concentration for half-maximal inhibition (IC50) in data set [6] is 9.43 nM; in data set [7] it was 30.1 nM; in data set [1] it was over 60000 nM; in data set [3] it was 8.86 nM. The molecule further displayed a solubility at 8 h in data set [2] of 977 µg/mL (≈ 2010 µM).
Regarding `CN1CCN(CCCNC(=O)Nc2snc(OCc3cccc(C(=O)NC4CC4)c3)c2C(N)=O)CC1` [Compound T069, 3-((3-(cyclopropylcarbamoyl)benzyl)oxy)-5-(3-(3-(4-methylpiperazin-1-yl)propyl)ureido)isothiazole-4-carboxamide], the concentration for half-maximal inhibition (IC50) in data set [6] is 5.48 nM; in data set [7] it was 14.6 nM; in data set [4], 3510 nM; in data set [1] it was over 60000 nM; in data set [3], 2.77 nM. Also, in data set [2], the solubility at 8 h was determined as 633 µg/mL (≈ 1230 µM).
As for `CNC(=O)c1cc(COc2nsc(NC(=O)NCCCCN3CCCC3)c2C(N)=O)ccc1F` [Compound T070, 3-((4-fluoro-3-(methylcarbamoyl)benzyl)oxy)-5-(3-(4-(pyrrolidin-1-yl)butyl)ureido)isothiazole-4-carboxamide], the IC50 in data set [6] was 9.14 nM; in data set [7], 50.1 nM; in data set [4], 7800 nM; in data set [1], over 60000 nM; in data set [3], 12 nM. This molecule also came in with a solubility at 8 h in data set [2] of 927 µg/mL (≈ 1880 µM).
Turning to `NC(=O)c1c(OCc2ccc3c(c2)COC3)nsc1NC(=O)NCCCCN1CCCC1` [Compound T072, 3-((1,3-dihydroisobenzofuran-5-yl)methoxy)-5-(3-(4-(pyrrolidin-1-yl)butyl)ureido)isothiazole-4-carboxamide], the 50% inhibitory concentration (IC50) in data set [1] came to 43500 nM. In addition, in data set [2], the solubility at 8 h was 2060 µg/mL (≈ 4480 µM). The fraction unbound at 2 h, 2 μM in data set [5] turned out to be 0.0196.
Consider `NC(=O)c1c(OCc2ccc3c(c2F)OCC3)nsc1NC(=O)NCCCCN1CCCC1` [Compound T074, 3-((7-fluoro-2,3-dihydrobenzofuran-6-yl)methoxy)-5-(3-(4-(pyrrolidin-1-yl)butyl)ureido)isothiazole-4-carboxamide], for which the solubility at 8 h in data set [2] worked out at 133 µg/mL (≈ 278 µM). Further, the fraction unbound at 2 h, 2 μM in data set [5] was 0.0462. Moreover, the IC50 in data set [3] turned out to be 26.5 nM.
On to `CCNC(=O)c1ccc(F)c(COc2nsc(NC(=O)NCCC3CCN(CCF)CC3)c2C(N)=O)c1` [Compound T127, 3-[[5-(ethylcarbamoyl)-2-fluoro-phenyl]methoxy]-5-[2-[1-(2-fluoroethyl)-4-piperidyl]ethylcarbamoylamino]isothiazole-4-carboxamide], for which the results for the IC50 in data set [4] and in data set [3] were 241 nM and 3 nM, respectively. The same molecule gave a solubility at 8 h in data set [2] of 1640 µg/mL (≈ 3040 µM). Besides, in data set [5], the fraction unbound at 2 h, 2 μM amounted to 0.0362.
For the molecule `NC(=O)c1c(OCc2cc(C(=O)NC3CC3)cc(F)c2F)nsc1NC(=O)NCCCCN1CCCC1` [Compound T133, 3-[[5-(cyclopropylcarbamoyl)-2,3-difluoro-phenyl]methoxy]-5-(4-pyrrolidin-1-ylbutylcarbamoylamino)isothiazole-4-carboxamide], the half-inhibitory concentration (IC50) is 21500 nM in data set [1] and 0.5 nM in data set [3]. The same molecule registered a solubility at 8 h in data set [2] of 757 µg/mL (≈ 1410 µM).
For the molecule `NC(=O)c1c(OCc2ccc(F)c(C(=O)NC3CC3)c2)nsc1NC(=O)NCCCN1CC[C@H](F)C1` [Compound T152, 3-[[3-(cyclopropylcarbamoyl)-4-fluoro-phenyl]methoxy]-5-[3-[(3S)-3-fluoropyrrolidin-1-yl]propylcarbamoylamino]isothiazole-4-carboxamide], the IC50 in data set [6] turned out to be 2.25 nM; in data set [7], 12.8 nM; in data set [1] it was 24000 nM; in data set [3], 3.53 nM. In data set [2], this molecule came in with a solubility at 8 h of 815 µg/mL (≈ 1560 µM).
